Laboratory results as given in patent publication US11524938B2, “Aromatic sulfonamide derivatives” (Bayer Pharma Aktiengesellschaft, priority 2016, dated 2022).
Where “and” joins values, the source holds several entries; their conditions need not be identical. Equal entries are not always repeated. Where two headings read alike, the source gives them in different places.

Molecular target: T1, human P2X4 (Homo sapiens, UniProt Q99571)
T1 sequence (Q99571 1-388): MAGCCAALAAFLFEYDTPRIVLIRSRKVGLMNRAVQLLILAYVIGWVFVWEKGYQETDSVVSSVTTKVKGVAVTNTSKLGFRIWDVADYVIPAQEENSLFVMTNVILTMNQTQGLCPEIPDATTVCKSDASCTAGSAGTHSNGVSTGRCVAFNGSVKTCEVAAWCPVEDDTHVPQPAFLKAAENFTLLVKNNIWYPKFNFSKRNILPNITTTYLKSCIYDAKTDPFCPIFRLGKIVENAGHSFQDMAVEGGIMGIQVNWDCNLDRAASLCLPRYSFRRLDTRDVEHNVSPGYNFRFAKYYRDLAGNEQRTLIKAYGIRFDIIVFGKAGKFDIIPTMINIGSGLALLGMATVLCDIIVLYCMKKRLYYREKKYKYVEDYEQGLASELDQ
Assay: Human P2X4 HEK Cell FLIPR Assay
Type: cell-based
Conditions: agonist Bz-ATP at EC80; for Emax: percentage of maximal inhibition, read-out: Human P2X4 HEK Cells (FLIPR Assay) avg Efficacy [%]; for IC50: individual values listed where some fall outside detection range
Outline: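 Calcium flux read by FLIPR for 120 sec after Bz-ATP challenge at EC80 (established each assay day), following 30 min room-temperature compound preincubation in dye-loaded stable human P2X4 HEK293 cells. Peak RFU over basal normalized to agonist control; IC50, maximal inhibition and Hill coefficient from triplicate means.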

| SMILES | Emax (HEK293, HEK293 cells) [%] | IC50 (HEK293 cells) | Emax (HEK293 cells) [%] |
| --- | --- | --- | --- |
| NS(=O)(=O)c1cc(NC(=O)Cc2ccccc2Cl)cnc1-n1cc(F)cn1 [Example 385, 2-(2-Chlorophenyl)-N-[6-(4-fluoro-1H-pyrazol-1-yl)-5-sulfamoylpyridin-3-yl]acetamide] | 72 | 47 nM |  |
| NS(=O)(=O)c1cc(NC(=O)Cc2ccccc2F)cnc1-n1cc(Br)cn1 [Example 386, N-[6-(4-Bromo-1H-pyrazol-1-yl)-5-sulfamoylpyridin-3-yl]-2-(2-fluorophenyl)acetamide] | 64 | 76 nM |  |
| NS(=O)(=O)c1cc(NC(=O)Cc2ccccc2F)cnc1-n1cc(Cl)cn1 [Example 388, N-[6-(4-Chloro-1H-pyrazol-1-yl)-5-sulfamoylpyridin-3-yl]-2-(2-fluorophenyl)acetamide] | 68 | 196 nM |  |
| NS(=O)(=O)c1cc(NC(=O)Cc2ccccc2Cl)cnc1-n1cc(Br)cn1 [Example 389, N-[6-(4-Bromo-1H-pyrazol-1-yl)-5-sulfamoylpyridin-3-yl]-2-(2-chlorophenyl)-acetamide] | 77 | 22 nM |  |
| NS(=O)(=O)c1cc(NC(=O)Cc2ccccc2F)ccc1-c1nnc(C(F)(F)F)o1 [Example 390, 2-(2-Fluorophenyl)-N-{3-sulfamoyl-4-[5-(trifluoromethyl)-1,3,4-oxadiazol-2-yl]phenyl}acetamide] |  | 1700 nM | 91 |
| NS(=O)(=O)c1cc(NC(=O)Cc2ccccc2Cl)ccc1-n1cnc(-c2cccnc2)n1 [Example 392, 2-(2-Chlorophenyl)-N-{4-[3-(pyridin-3-yl)-1H-1,2,4-triazol-1-yl]-3-sulfamoylphenyl}acetamide] | 64 | 9660 nM |  |
| NS(=O)(=O)c1cc(NC(=O)Cc2ccccc2Cl)ccc1-n1ncc2ccccc21 [Example 395, 2-(2-Chlorophenyl)-N-[4-(1H-indazol-1-yl)-3-sulfamoylphenyl]acetamide] | 86 | 73 nM |  |
| NS(=O)(=O)c1cc(NC(=O)Cc2ccccc2Cl)ccc1-n1cc(NC(=O)C2CC2)cn1 [Example 400, N-[1-(4-{[(2-Chlorophenyl)acetyl]amino}-2-sulfamoylphenyl)-1H-pyrazol-4-yl]cyclopropanecarboxamide] | 88 | 87 nM |  |
| NS(=O)(=O)c1cc(NC(=O)Cc2ccccc2Cl)ccc1-n1cc(-c2cnccn2)cn1 [Example 401, 2-(2-Chlorophenyl)-N-{4-[4-(pyrazin-2-yl)-1H-pyrazol-1-yl]-3-sulfamoylphenyl}acetamide] | 82 | 23 nM |  |
| NS(=O)(=O)c1cc(NC(=O)Cc2ccccc2Cl)ccc1-n1cc(-c2ccccn2)cn1 [Example 402, 2-(2-Chlorophenyl)-N-{4-[4-(pyridin-2-yl)-1H-pyrazol-1-yl]-3-sulfamoylphenyl}acetamide] | 85 | 41 nM |  |
| NS(=O)(=O)c1cc(NC(=O)Cc2ccccc2Cl)ccc1-n1cc(-c2cccnc2)cn1 [Example 403, 2-(2-Chlorophenyl)-N-{4-[4-(pyridin-3-yl)-1H-pyrazol-1-yl]-3-sulfamoylphenyl}acetamide] | 88 | 16 nM |  |
| NS(=O)(=O)c1cc(NC(=O)Cc2ccccc2Cl)ccc1-n1cc(-c2ccncn2)cn1 [Example 404, 2-(2-Chlorophenyl)-N-{4-[4-(pyrimidin-4-yl)-1H-pyrazol-1-yl]-3-sulfamoylphenyl}acetamide] | 73 | 175 nM |  |

Now from value to molecule, other results behind:

| Emax (HEK293, HEK293 cells) [%] | IC50 (HEK293 cells) | SMILES | Emax (HEK293 cells) [%] |
| --- | --- | --- | --- |
| 98 | 186 nM | NS(=O)(=O)c1cc(NC(=O)Cc2ccccc2Cl)ccc1-c1nnc(C(F)(F)F)o1 [Example 391, 2-(2-Chlorophenyl)-N-{3-sulfamoyl-4-[5-(trifluoromethyl)-1,3,4-oxadiazol-2-yl]phenyl}acetamide] |  |
| 49 |  | NS(=O)(=O)c1cc(NC(=O)Cc2ccccc2F)ccc1-n1cccn1 [Example 393, 2-(2-Fluorophenyl)-N-[4-(1H-pyrazol-1-yl)-3-sulfamoylphenyl]acetamide] |  |
| 86 | 740 nM | CC(C)(C)c1cnn(-c2ccc(NC(=O)Cc3ccccc3Cl)cc2S(N)(=O)=O)c1 [Example 394, N-[4-(4-tert-Butyl-1H-pyrazol-1-yl)-3-sulfamoylphenyl]-2-(2-chlorophenyl)acetamide] |  |
| 44 | 9.58 µM and > 25 µM (4×) | NS(=O)(=O)c1cc(NC(=O)Cc2ccccc2Cl)ccc1-n1cc2ccccc2n1 [Example 396, 2-(2-Chlorophenyl)-N-[4-(2H-indazol-2-yl)-3-sulfamoylphenyl]acetamide] |  |
| 43 | > 25000 nM | NS(=O)(=O)c1cc(NC(=O)Cc2ccccc2F)ccc1-n1cc2ccccc2n1 [Example 397, 2-(2-Fluorophenyl)-N-[4-(2H-indazol-2-yl)-3-sulfamoylphenyl]acetamide] |  |
| 57 | 207 nM | NS(=O)(=O)c1cc(NC(=O)Cc2ccccc2F)ccc1-n1ncc2ccccc21 [Example 398, 2-(2-Fluorophenyl)-N-[4-(1H-indazol-1-yl)-3-sulfamoylphenyl]acetamide] |  |
| 92 | 84 nM | CN(C)C(=O)c1cnn(-c2ccc(NC(=O)Cc3ccccc3Cl)cc2S(N)(=O)=O)c1 [Example 399, 1-(4-{[(2-Chlorophenyl)acetyl]amino}-2-sulfamoylphenyl)-N,N-dimethyl-1H-pyrazole-4-carboxamide] |  |
| 65 | 5670 nM | NS(=O)(=O)c1cc(NC(=O)Cc2ccccc2F)ccc1-n1cc(-c2ccncn2)cn1 [Example 405, 2-(2-Fluorophenyl)-N-{4-[4-(pyrimidin-4-yl)-1H-pyrazol-1-yl]-3-sulfamoylphenyl}acetamide] |  |
| 64 | 6840 nM | COc1ccc(CC(=O)Nc2ccc(-n3ncc(C(F)(F)F)n3)c(S(N)(=O)=O)c2)cc1 [Example 406, 2-(4-Methoxyphenyl)-N-{3-sulfamoyl-4-[4-(trifluoromethyl)-2H-1,2,3-triazol-2-yl]phenyl}acetamide] |  |
| 86 | 429 nM | COc1ccc(CC(=O)Nc2ccc(-n3cc(C(F)(F)F)nn3)c(S(N)(=O)=O)c2)cc1 [Example 407, 2-(4-Methoxyphenyl)-N-{3-sulfamoyl-4-[4-(trifluoromethyl)-1H-1,2,3-triazol-1-yl]phenyl}acetamide] |  |
| 74 | 2640 nM | Cc1ccc(CC(=O)Nc2ccc(-n3ncc(C(F)(F)F)n3)c(S(N)(=O)=O)c2)cc1 [Example 408, 2-(4-Methylphenyl)-N-{3-sulfamoyl-4-[4-(trifluoromethyl)-2H-1,2,3-triazol-2-yl]phenyl}acetamide] |  |
| 85 | 445 nM | Cc1ccc(CC(=O)Nc2ccc(-n3cc(C(F)(F)F)nn3)c(S(N)(=O)=O)c2)cc1 [Example 409, 2-(4-Methylphenyl)-N-{3-sulfamoyl-4-[4-(trifluoromethyl)-1H-1,2,3-triazol-1-yl]phenyl}acetamide] |  |
| 69 | 5450 nM | NS(=O)(=O)c1cc(NC(=O)Cc2ccc(C(F)F)cc2)ccc1-n1ncc(C(F)(F)F)n1 [Example 410, 2-[4-(Difluoromethyl)phenyl]-N-{3-sulfamoyl-4-[4-(trifluoromethyl)-2H-1,2,3-triazol-2-yl]phenyl}acetamide] |  |
| 90 | 84 nM | NS(=O)(=O)c1cc(NC(=O)Cc2ccc(C(F)F)cc2)ccc1-n1cc(C(F)(F)F)nn1 [Example 411, 2-[4-(Difluoromethyl)phenyl]-N-{3-sulfamoyl-4-[4-(trifluoromethyl)-1H-1,2,3-triazol-1-yl]phenyl}acetamide] |  |
